Data reported in ChEMBL document CHEMBL1130296, “Benzo[c]quinoliziniums: A new family of inhibitors for protein kinase CK II” (Bioorg Med Chem Lett, 1997).

target: Protein kinase C (PKC); experiment: Inhibition of protein kinase C; assay type: protein assay

SMILES | IC50 [µM]
Oc1cc2cccc[n+]2c2c(Cl)cccc12.[Cl-] | 38

target: Cyclin-dependent kinase 1 (Homo sapiens, UniProt P06493); experiment: Inhibition of cyclin-dependent kinase 1 cdc2
Sequence (P06493 whole entry): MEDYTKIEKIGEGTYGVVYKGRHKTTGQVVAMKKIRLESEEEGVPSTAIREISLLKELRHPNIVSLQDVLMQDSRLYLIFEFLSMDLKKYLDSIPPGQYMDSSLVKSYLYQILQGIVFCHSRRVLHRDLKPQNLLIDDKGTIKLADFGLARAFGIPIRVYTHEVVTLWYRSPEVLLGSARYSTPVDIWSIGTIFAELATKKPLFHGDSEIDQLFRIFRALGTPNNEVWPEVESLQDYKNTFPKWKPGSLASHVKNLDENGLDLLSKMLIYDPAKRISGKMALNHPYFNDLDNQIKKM

SMILES | IC50 [µM]
Oc1cc2cccc[n+]2c2c(Cl)cccc12.[Cl-] | > 1000

target: Proto-oncogene tyrosine-protein kinase Src (Homo sapiens, UniProt P12931); experiment: Inhibition of p60 c-Src tyrosine kinase (No inhibition)
Sequence (P12931 2-536 limits assumed): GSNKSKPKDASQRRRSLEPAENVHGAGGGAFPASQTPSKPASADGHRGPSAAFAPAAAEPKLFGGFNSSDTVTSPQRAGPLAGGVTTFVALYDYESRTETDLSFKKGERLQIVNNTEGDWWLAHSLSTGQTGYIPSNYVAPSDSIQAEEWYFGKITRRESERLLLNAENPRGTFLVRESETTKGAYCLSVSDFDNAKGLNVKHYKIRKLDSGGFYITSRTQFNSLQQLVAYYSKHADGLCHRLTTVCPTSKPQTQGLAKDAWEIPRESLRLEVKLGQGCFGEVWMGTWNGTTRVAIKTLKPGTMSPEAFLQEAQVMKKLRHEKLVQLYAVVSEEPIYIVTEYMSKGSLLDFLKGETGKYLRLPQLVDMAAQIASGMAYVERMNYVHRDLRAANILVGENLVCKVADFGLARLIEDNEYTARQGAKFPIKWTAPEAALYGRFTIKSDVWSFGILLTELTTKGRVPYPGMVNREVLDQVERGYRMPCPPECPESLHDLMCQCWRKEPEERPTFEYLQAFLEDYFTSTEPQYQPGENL

SMILES | IC50
Oc1cc2cccc[n+]2c2c(Cl)cccc12.[Cl-] | Not Active

target: T1, Casein kinase II (Homo sapiens, UniProt P19784+P67870+P68400); experiment: Inhibitory concentration was determined towards Casein kinase 2; assay type: protein-complex assay
T1 sequence (P67870 whole entry): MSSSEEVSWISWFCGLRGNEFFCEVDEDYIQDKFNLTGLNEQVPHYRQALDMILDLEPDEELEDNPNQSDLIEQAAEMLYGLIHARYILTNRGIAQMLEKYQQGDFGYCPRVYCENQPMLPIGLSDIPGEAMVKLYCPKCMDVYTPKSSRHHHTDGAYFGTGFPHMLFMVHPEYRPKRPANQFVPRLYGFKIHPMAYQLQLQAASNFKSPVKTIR
T1 sequence (P68400 whole entry): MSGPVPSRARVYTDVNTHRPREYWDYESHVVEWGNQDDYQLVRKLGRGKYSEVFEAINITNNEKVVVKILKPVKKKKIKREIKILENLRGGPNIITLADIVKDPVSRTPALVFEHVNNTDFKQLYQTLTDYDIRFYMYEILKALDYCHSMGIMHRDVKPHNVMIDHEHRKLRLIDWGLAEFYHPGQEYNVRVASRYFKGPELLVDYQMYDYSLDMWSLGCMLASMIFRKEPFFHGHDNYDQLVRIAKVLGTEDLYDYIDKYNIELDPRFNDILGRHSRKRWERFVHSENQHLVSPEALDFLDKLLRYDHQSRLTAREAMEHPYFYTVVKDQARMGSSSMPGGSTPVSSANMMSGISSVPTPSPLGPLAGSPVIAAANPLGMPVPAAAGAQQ
T1 sequence (P19784 whole entry): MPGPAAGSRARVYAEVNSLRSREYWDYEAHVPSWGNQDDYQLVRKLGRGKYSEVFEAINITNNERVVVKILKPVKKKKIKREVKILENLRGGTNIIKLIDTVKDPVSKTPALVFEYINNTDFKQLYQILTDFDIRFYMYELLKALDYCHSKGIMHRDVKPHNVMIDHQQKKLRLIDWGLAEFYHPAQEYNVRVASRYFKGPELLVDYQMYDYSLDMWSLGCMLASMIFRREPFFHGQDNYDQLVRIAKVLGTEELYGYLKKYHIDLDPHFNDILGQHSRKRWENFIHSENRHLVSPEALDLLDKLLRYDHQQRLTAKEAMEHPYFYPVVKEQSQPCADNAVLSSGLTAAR

SMILES | IC50 [µM]
Nc1cc2cccc[n+]2c2ccccc12 [listing 1 of 2 here] | 110
Oc1cc2cccc[n+]2c2cccc(Cl)c12 | 18
O/C(=C/c1ccccn1)c1ccc(Cl)cc1Cl | 900
Oc1cc2cccc[n+]2c2ccccc12 [listing 1 of 2 here] | 50
O/C(=C/c1ccccn1)c1cccc(Cl)c1Cl | 130
Oc1cc2cccc[n+]2c2ccccc12 [listing 2 of 2 here] | 43
Oc1cc2cccc[n+]2c2ccc(Cl)cc12 | 210
Nc1cc2cccc[n+]2c2ccccc12 [listing 2 of 2 here] | 100
Nc1cc2cccc[n+]2c2c(Cl)cccc12 | 50
O/C(=C/c1ccccn1)c1ccccc1 | 2500
Nc1cc2cccc[n+]2c2cc(Cl)ccc12 | 24
O/C(=C/c1ccccn1)c1ccccc1Cl | 1200
O/C(=C/c1ccccn1)c1ccccc1Br | 820
Oc1cc2cccc[n+]2c2cc(Cl)ccc12 | 39
Nc1cc2cccc[n+]2c2cccc(Cl)c12 | 84
O/C(=C/c1ccccn1)c1c(Cl)cccc1Cl | 580

target: T1, Casein kinase II; experiment: Inhibition of casein kinase II; assay type: protein-complex assay

SMILES | IC50 [µM]
Oc1cc2cccc[n+]2c2c(Cl)cccc12.[Cl-] | 5
